# Data published in patent publication US20240342199A1, “COMBINATION THERAPIES TARGETING MITOCHONDRIA FOR CANCER THERAPY” (The Wistar Institute of Anatomy and Biology, priority 2014, published 2024).
# “Also recorded” adds a separate entry of the source.
# How the values were obtained:
# [1] = test system: tumor cells; assay: Senescence markers (SA-β-Gal, PML nuclear bodies); format: cell-based; conditions: treated tumor cells
# [2] = test system: PC3 or LN229 cells; assay: Colony formation assay; format: cell-based, Human; conditions: 10 μM, 12 days, compared with control cultures
# Description: Mitochondrial integrity and cell viability. LN229 or U251 cells were treated with vehicle (DMSO), PI3K inhibitors, BEZ (0.5 μM) or LY294002 (50 μM), alone or combination with Gamitrinib (0.5-5 μM, respectively) for 24 h, and analyzed for changes in mitochondrial membrane potential by JC-1 staining and multiparametric flow cytometry, as described. For cell viability, LN229, U87 or U251 cells treated with vehicle, PI3K inhibitors BEZ or LY294002, or, alternatively, transfected with control cDNA or Δ-p85 dominant negative PI3K mutant, alone or in combination with Gamitrinib, were examined by a 3 (4,5-dimethyl-thyazoyl-2-yl)2,5 diphenyltetrazolium bromide (MTT) colorimetric assay. Changes in cell viability in LN229 cells exposed to PX-866 (0-25 μM) were monitored by Trypan blue staining, or, alternatively, MTT. For apoptosis, LN229 cells (1×10^6) treated with vehicle, Gamitrinib or PI3K inhibitors (BEZ, LY294002), alone or in combination for 24 h, were labeled for annexin V plus propidium iodide (PI) (BD Biosciences), and analyzed by multiparametric flow cytometry (BD), as described. Alternatively, cytosolic fractions isolated from treated tumor cells were analyzed for released cytochrome c, by Western blotting. For analysis of colony-forming ability, PC3 or LN229 cells were treated with vehicle (Veh) or PX-866 (10 μM) and analyzed in a colony formation assay after 12 days. […]
# [3] = test system: LN229 cells; assay: Global metabolomics screening; format: cell-based, Human; conditions: 10 μM for 48 h
# Description: Metabolomics screen and Reverse Phase Protein Array (RPPA). Changes in expression of 301 individual metabolites in LN229 cells treated with PX-866 (10 μM for 48 h) were determined in a global metabolomics screening as described previously. For RPPA, PC3 or LN229 cells were treated with vehicle, PX-866 (10 μM) or the combination of PX-866 plus Gamitrinib (5 μM) for 24 h. Data in triplicate samples were normalized for protein loading, converted to linear values and then log2 transformed.
# Statistical analysis. Data were analyzed using the two-sided unpaired/tests using a GraphPad software package (Prism 4.0) for Windows. Data are expressed as mean±SEM of replicates of a representative experiment out of at least two independent determinations. A p value of ≤0.05 was considered as statistically significant. For RPPA screens, the False Discovery Rate (FDR) values were estimated using Benjamini-Hochberg correction for multiple testing and changes with FDR<20% of at least 1.2 fold were called statistically significant. […] However, biochemicals that were detected in all samples from one or more groups, but not in samples from other groups, were assumed to be near the lower limit of detection in the groups in which they were not detected. In this case, the lowest detected level of these biochemicals was imputed for samples in which that biochemical was not detected. […]
# [4] = test system: LN229 or PC3 cells; assay: Analysis of bioenergetics (ATP, glucose, lactate, oxygen consumption); format: cell-based, Human
# [5] = test system: GBM organotypic cultures; assay: Tumor kinome transcription (OpenArray real-time PCR) in GBM organotypic cultures; format: cell-based, Human
# Description: Organotypic cultures. Short-term organotypic cultures from the different patient samples were established as described previously. […]
# Bioinformatics analysis. Transcriptional changes in the human kinome following PI3K inhibition were analyzed using OpenArray real-time PCR amplification. […] Ct values from the experiment were exported from BioTrove OpenArray Real-Time qPCR Analysis Software v1.0.4. ΔΔCt value method was used to calculate fold changes between sample pairs with endogenous control Ct value calculated as average among 15 endogenous controls on the array: ALAS1, B2M, CASC3, G6PD, GAPDH, GUSB, HMBS, HPRT1, IPO8, POLR2A, PPIA, RPLP0, TFRC, UBE2D2, and YWHAZ. P-values for differential expression were calculated using fold changes of 15 endogenous controls as a null distribution.
# [6] = test system: CypD; assay: CypD level and Ser phosphorylation in reconstituted LN229 cells; format: cell-based, Human
# Text: Mutant constructs were confirmed by DNA sequencing and transfected in CypD-depleted cells for reconstitution experiments. In some experiments, CypD depleted LN229 cells were transfected with WT or mutant CypD constructs and analyzed for bioenergetics (glucose utilization, oxygen consumption, ATP production) or cell viability (JC1 or Annexin V multiparametri staining, cytochrome c release) readouts.
# [7] = test system: Akt2 (Ser474) in cytosol and mitochondria; assay: Phosphorylated Akt in cytosol and mitochondrial extracts by Western blotting; format: cell-based, Human; conditions: cytosol and mitochondrial extracts, 48 h
# Description: Subcellular and submitochondrial fractionation. Mitochondrial fractions were isolated using an ApoAlertTM cell fractionation kit (CLONTECH), as described. Submitochondrial fractions comprising outer membrane (OM), inner membrane (IM), inter-membrane space (IMS) and matrix were prepared as described.
# [8] = test system: LN229 or PC3 cells; assay: Cell cycle, proliferation and viability after PI3K inhibition; format: cell-based, Human
# Description: Mitochondrial integrity and cell viability. LN229 or U251 cells were treated with vehicle (DMSO), PI3K inhibitors, BEZ (0.5 μM) or LY294002 (50 μM), alone or combination with Gamitrinib (0.5-5 μM, respectively) for 24 h, and analyzed for changes in mitochondrial membrane potential by JC-1 staining and multiparametric flow cytometry, as described. For cell viability, LN229, U87 or U251 cells treated with vehicle, PI3K inhibitors BEZ or LY294002, or, alternatively, transfected with control cDNA or Δ-p85 dominant negative PI3K mutant, alone or in combination with Gamitrinib, were examined by a 3 (4,5-dimethyl-thyazoyl-2-yl)2,5 diphenyltetrazolium bromide (MTT) colorimetric assay. Changes in cell viability in LN229 cells exposed to PX-866 (0-25 μM) were monitored by Trypan blue staining, or, alternatively, MTT. For apoptosis, LN229 cells (1×10^6) treated with vehicle, Gamitrinib or PI3K inhibitors (BEZ, LY294002), alone or in combination for 24 h, were labeled for annexin V plus propidium iodide (PI) (BD Biosciences), and analyzed by multiparametric flow cytometry (BD), as described. Alternatively, cytosolic fractions isolated from treated tumor cells were analyzed for released cytochrome c, by Western blotting. For analysis of colony-forming ability, PC3 or LN229 cells were treated with vehicle (Veh) or PX-866 (10 μM) and analyzed in a colony formation assay after 12 days. Colonies were stained with crystal violet. In some experiments, LN229 cells treated with PX-866 (0-25 μM) were analyzed for DNA content by PI staining and flow cytometry.
# [9] = test system: Akt phosphorylation; assay: Akt phosphorylation in tumor cell lines by Western blotting; format: cell-based, Human; conditions: high (10 μM) and low (0.8 μM) concentrations, within 24 hours
# [10] = test system: MAP kinase; conditions: concentration of 50 μM; cited from earlier work
# [11] = test system: PI3 kinase; conditions: concentration of 50 μM; cited from earlier work
# [12] = test system: PI4 kinase; conditions: concentration of 50 μM; cited from earlier work
# [13] = test system: PKC; conditions: concentration of 50 μM; cited from earlier work
# [14] = biological target: c-Src (Homo sapiens, UniProt P12931); conditions: concentration of 50 μM; cited from earlier work
# [15] = test system: Ser473-phosphorylated Akt (pAkt); assay: Ser473-phosphorylated Akt in patient-derived organotypic cultures; format: cell-based, Human; conditions: Gamitrinib added to PI3K inhibitor-treated tumor organoids
# Description: Organotypic cultures. Short-term organotypic cultures from the different patient samples were established as described previously. Briefly, precise thick tissue slices (300 μm) were obtained from each case by vibratome serial cutting (VT1200, Leica Microsystems, Milan, Italy), and cultured in six-well plates on organotypic inserts (Millicell PICM ORG, Merck Millipore) for up to 48 h in 1 ml of Ham-F12 complete medium supplemented with vehicle (DMSO, 2.5 μl), pan-PI3K inhibitor LY294002 (50 or 100 μM) or PX-886 (2.5, 5 or 10 μM), or mitochondrial-targeted small molecule Heat Shock Protein-90 (Hsp90) inhibitor, 10 Gamitrinib (GA mitochondrial matrix inhibitor, 10 or 25 μM), or the combination of PX-886 plus Gamitrinib (each agent used at 10 μM). At the end of the experiment, one tissue slice per condition was formalin-fixed and paraffin-embedded (FFPE), and processed for morphological and immunohistochemical analysis. An additional tissue slice collected at the end of the experiment was embedded in optimal cutting temperature, and snap-frozen for molecular or immunofluorescence studies.
# [16] = test system: LN229 cells; assay: High-throughput screening: cell viability (resazurin), compounds with DMSO or Gamitrinib; format: cell-based, Human; conditions: Gamitrinib 1 μM in combination
# Description: High-throughput screening and synergy experiments. Compounds for the molecular targeted cancer therapeutics were either purchased from SelleckChem or acquired under Material Transfer Agreement (MTA) with the Wistar Institute MTA. Compounds were suspended in DMSO. The purity and identity of the compounds was confirmed by LC/MS for a fraction of the compounds. Source plates with a 10 point dilution series (5-fold dilutions, ranging from 10-0.0001 μmol/L) were prepared for screening. […] Cell viability was determined by the addition of resazurin to a final concentration of 50 μM and incubation for 8 h. Fluorescence intensity (excitation, 560 nm, emission, 590 nm) was determined on an Envision Xcite Multilabel Reader (Perkin-Elmer), and the fractional growth inhibition was determined by normalizing assay wells to the aggregated average responses of positive control (10 μM doxorubicin) and negative control (0.2% DMSO) treatments (n=12).
# [17] = test system: LN229 cells; assay: Bliss independence analysis of Gamitrinib and kinase inhibitors; format: cell-based, Human; conditions: Gamitrinib with NVP-BEZ235, GDC-0941 or AZD6482, 7×7 matrix, 18 h
# Description: A synergistic anticancer activity of the combination of Gamitrinib and selected kinase inhibitors was further assessed by Bliss independence analysis. For these experiments, LN229 cells were treated with Gamitrinib (concentration range 2-0.008 μmol/L) and selected kinase inhibitors (concentration range 2-0.008 μmol/L) in a 7×7 matrix for 18 h at 37° C. Cell viability was measured by addition of resazurin, and the fractional growth inhibition under the various conditions tested was determined as described above. The Bliss expectation (E) for a combined response was calculated by the equation: E=(A+B)−(A×B) where A and B are the fractional growth inhibitions of drug A and B at a given concentration. […] Each synergy experiment was done two independent times, in duplicate.
# [18] = PX-866 (10 μM), AZD6482 (10 μM) or GDC0941 (2 μM) for 48 h
# Sequence of c-Src (P12931 whole entry, species assumed): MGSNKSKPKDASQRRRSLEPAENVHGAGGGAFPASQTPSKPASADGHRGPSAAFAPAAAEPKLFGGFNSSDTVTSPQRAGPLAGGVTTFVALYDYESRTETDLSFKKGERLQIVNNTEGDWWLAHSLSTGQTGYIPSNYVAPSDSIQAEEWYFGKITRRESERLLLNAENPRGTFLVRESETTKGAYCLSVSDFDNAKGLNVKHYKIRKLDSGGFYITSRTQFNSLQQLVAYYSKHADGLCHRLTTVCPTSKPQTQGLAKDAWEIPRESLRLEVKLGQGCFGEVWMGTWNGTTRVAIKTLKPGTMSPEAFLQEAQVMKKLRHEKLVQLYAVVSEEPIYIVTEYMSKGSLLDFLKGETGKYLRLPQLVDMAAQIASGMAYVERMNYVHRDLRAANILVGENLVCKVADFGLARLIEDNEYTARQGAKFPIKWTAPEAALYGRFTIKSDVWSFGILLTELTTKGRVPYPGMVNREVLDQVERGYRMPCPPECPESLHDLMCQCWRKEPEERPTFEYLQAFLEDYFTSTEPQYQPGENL
compound,measurement,setting,value
C=CCN(/C=C1/C(=O)O[C@H](COC)[C@@]2(C)C1=C(O)C(=O)C1=C2[C@H](OC(C)=O)C[C@]2(C)C(=O)CC[C@@H]12)CC=C [PX-866],PML nuclear body number,[1],higher PML nuclear body number
same,senescence-associated β-galactosidase staining (SA-β-Gal),[1],increased β-galactosidase staining
same,long-term colony forming ability,[2],unaffected
same,metabolome profile,[3],extensive metabolic reprogramming
same,oxygen consumption,[4]; 10 μM for 48 h,suppression of oxygen consumption
same,ATP production,[4]; [18],reduced ATP production
same,glucose utilization,[4]; [18],less glucose utilization
same,lactate production,[4]; [18],less
same,expression of kinome genes,"[5]; PX-866 (10 μM) for 48 h, GBM organotypic cultures",increased the expression of genes associated with growth factor signaling
same,phosphorylated Ser (pSer) reactivity of WT CypD,[6]; immunoprecipitated from reconstituted LN229 cells,increased this response; also recorded: increased reactivity with an antibody to pSer
same,levels of endogenous or overexpressed CypD,"[6]; reconstituted cells, 10 μM for 48 h",did not affect
same,phosphorylation of Akt2 on Ser474,[7],robust and concentration-dependent isoform-specific phosphorylation of Akt2 on Ser474
same,cell cycle (DNA content),[8]; 10 μM,arrested in the G1 phase of the cell cycle
same,proliferation (direct cell counting),[8]; 10 μM,reduced proliferation
same,"viability (Trypan blue, MTT)","[8]; LN229 cells, 48 h",without significant decrease in viability
same,Akt phosphorylation,[9],induced Akt phosphorylation
"O=c1cc(N2CCOCC2)oc2c(-c3ccccc3)cccc12 [LY294002, 2-(4-morpholinyl)-8-phenyl-4H-1-benzopyran-4-one]",inhibition of MAP kinase,[10],did not inhibit
same,PI3 kinase activity,[11],specifically abolished PI3 kinase activity
same,inhibition of PI4 kinase,[12],did not inhibit
same,inhibition of PKC,[13],did not inhibit
same,inhibition of c-Src,[14],did not inhibit
Gamitrinib,transcriptional changes induced by PI3K inhibition,[5]; Gamitrinib added to PX-866-treated tumor organoids,largely reversed the transcriptional changes induced by PI3K inhibition
same,reactivation of Akt induced by PI3K inhibition,[15],prevented the reactivation of Akt
same,effect on anticancer activity of PI3K/Akt/MTOR pathway antagonists,[16],potently enhanced the anticancer activity
same,"tumor cell proliferation, Bliss independence analysis",[17],synergistically inhibited tumor cell proliferation
